Values of other authors, collected in patent US5709992A, “Method for disinfecting red blood cells” (priority 1995, dated 1998).

Molecular target: erythrocyte glutathione (GSH) peroxidase (Homo sapiens, UniProt P07203)
Conditions: read-out: Km (peroxide), effective at very low concentrations of peroxide

Chain of erythrocyte glutathione (GSH) peroxidase (P07203 whole entry): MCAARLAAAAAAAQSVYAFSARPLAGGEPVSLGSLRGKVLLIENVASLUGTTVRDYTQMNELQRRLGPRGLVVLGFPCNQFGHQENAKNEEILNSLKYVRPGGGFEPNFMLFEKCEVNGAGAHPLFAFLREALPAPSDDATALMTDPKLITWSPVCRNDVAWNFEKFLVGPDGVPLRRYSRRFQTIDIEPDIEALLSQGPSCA

In the case of `OO` [peroxide, hydrogen peroxide], the Km is listed as 1 µM.
